The results in this text go back to patent publication US11180474B2 (BRISTOL-MYERS SQUIBB COMPANY, priority 2016, dated 2021).

The target of this experiment is T1, human TLR8 (Homo sapiens, UniProt Q9NR97).
T1 construct: host or cells: HEK-Blue cells
T1 sequence (Q9NR97 27-1041): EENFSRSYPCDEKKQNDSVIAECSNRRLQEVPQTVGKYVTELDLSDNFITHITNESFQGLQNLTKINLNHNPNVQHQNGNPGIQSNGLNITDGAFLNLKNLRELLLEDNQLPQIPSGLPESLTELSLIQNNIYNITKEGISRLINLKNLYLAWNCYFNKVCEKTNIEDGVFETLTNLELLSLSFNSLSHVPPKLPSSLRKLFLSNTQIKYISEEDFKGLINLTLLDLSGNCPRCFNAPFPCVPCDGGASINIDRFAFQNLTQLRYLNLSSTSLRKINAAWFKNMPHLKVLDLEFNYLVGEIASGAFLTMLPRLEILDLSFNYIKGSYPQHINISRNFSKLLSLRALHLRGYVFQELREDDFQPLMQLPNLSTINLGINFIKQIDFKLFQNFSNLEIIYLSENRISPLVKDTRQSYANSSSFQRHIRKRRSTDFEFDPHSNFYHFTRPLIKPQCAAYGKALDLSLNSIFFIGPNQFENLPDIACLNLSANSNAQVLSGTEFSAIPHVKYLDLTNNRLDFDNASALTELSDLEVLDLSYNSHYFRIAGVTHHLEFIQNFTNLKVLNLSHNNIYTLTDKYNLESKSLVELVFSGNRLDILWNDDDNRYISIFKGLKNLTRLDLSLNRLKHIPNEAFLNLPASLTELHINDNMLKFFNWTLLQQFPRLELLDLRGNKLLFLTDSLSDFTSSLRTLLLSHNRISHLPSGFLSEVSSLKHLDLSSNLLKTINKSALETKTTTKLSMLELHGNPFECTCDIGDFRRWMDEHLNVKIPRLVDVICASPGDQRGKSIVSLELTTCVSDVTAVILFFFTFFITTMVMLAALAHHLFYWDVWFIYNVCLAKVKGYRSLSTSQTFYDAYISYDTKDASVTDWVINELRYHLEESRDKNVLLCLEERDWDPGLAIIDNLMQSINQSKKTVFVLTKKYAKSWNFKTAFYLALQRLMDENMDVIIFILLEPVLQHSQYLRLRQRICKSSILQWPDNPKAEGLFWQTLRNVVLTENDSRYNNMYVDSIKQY
The experiment in a line: TLR8 inhibition reporter assay (HEK-Blue cells, SEAP reporter, R848 stimulation). Format: cell-based. Particulars: HEK-Blue cells overexpressing human TLR8, R848 15.9 μM. In outline:
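In this cell reporter format, test compounds at 0.05 nM-50 μM final incubate 22 h with seeded cells (TLR7 15000, TLR8 20,000 per well). SEAP read-out by HEK-Blue Detection medium yields % inhibition relative to agonist/DMSO and known-inhibitor wells.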
Background: A reporter such as luciferase makes a cellular process visible.
Turning to `COc1ccc(-c2[nH]c3ccc(C4CCN(C(=O)NCc5ccco5)CC4)cc3c2CC(F)(F)F)cc1OC` [Example 358, 4-(2-(3,4-dimethoxyphenyl)-3-(2,2,2-trifluoroethyl)-1H-indol-5-yl)-N-(furan-2-ylmethyl)piperidine-1-carboxamide], the half-inhibitory concentration (IC50) amounted to 2920 nM. This counts as single-digit micromolar.
The molecule `COc1ccc(-c2[nH]c3ccc(C4CCNCC4F)cc3c2C(C)C)cc1OC` (racemic) [Example 320, 2-(3,4-dimethoxyphenyl)-5-(3-fluoropiperidin-4-yl)-3-isopropyl-1H-indole] registered an IC50 of 124 nM.
The same measure for `COc1ccc(-c2[nH]c3ccc(C4CCN(C(=O)C5CCN(C(C)=O)CC5)CC4)cc3c2CC(F)(F)F)cc1OC` [Example 345, 1-(4-(4-(2-(3,4-dimethoxyphenyl)-3-(2,2,2-trifluoroethyl)-1H-indol-5-yl)piperidine-1-carbonyl)piperidin-1-yl)ethan-1-one]: 1030 nM.
`COc1ccc(-c2[nH]c3ccc(C4CCN(CC(=O)NCCN(C)C)CC4)cc3c2CC(F)(F)F)cc1OC` [Example 380, 2-(4-(2-(3,4-dimethoxyphenyl)-3-(2,2,2-trifluoroethyl)-1H-indol-5-yl)piperidin-1-yl)-N-(2-(dimethylamino)ethyl)acetamide] returned an IC50 of 55 nM.
`COc1ccc(-c2[nH]c3ccc(C4CCN(CC(=O)N5CCN(c6ncccn6)CC5)CC4)cc3c2CC(F)(F)F)cc1OC` [Example 368, 2-(4-(2-(3,4-dimethoxyphenyl)-3-(2,2,2-trifluoroethyl)-1H-indol-5-yl)piperidin-1-yl)-1-(4-(pyrimidin-2-yl)piperazin-1-yl)ethan-1-one] yielded a concentration for half-maximal inhibition (IC50) of 74 nM.
The molecule `COc1ccc(-c2[nH]c3ccc(C4CCN(C(=O)CCn5ccc6ccccc65)CC4)cc3c2CC(F)(F)F)cc1OC` [Example 337, 1-(4-(2-(3,4-dimethoxyphenyl)-3-(2,2,2-trifluoroethyl)-1H-indol-5-yl)piperidin-1-yl)-3-(1H-indol-1-yl)propan-1-one] had a half-inhibitory concentration (IC50) of 5080 nM. This IC50 is about 69-fold higher than that of the molecule before.
For the molecule `COc1ccc(-c2[nH]c3ccc(C4CCN(C(=O)CCCn5ccnc5)CC4)cc3c2CC(F)(F)F)cc1OC` [Example 331, 1-(4-(2-(3,4-dimethoxyphenyl)-3-(2,2,2-trifluoroethyl)-1H-indol-5-yl)piperidin-1-yl)-4-(1H-imidazol-1-yl)butan-1-one], the IC50 came to 221 nM.
Next, `COc1ccc(-c2[nH]c3ccc(C4CCN(C(=O)NCCc5ccccc5)CC4)cc3c2CC(F)(F)F)cc1OC` [Example 357, 4-(2-(3,4-dimethoxyphenyl)-3-(2,2,2-trifluoroethyl)-1H-indol-5-yl)-N-phenethylpiperidine-1-carboxamide]: 943 nM; `COc1ccc(-c2[nH]c3ccc(C4CCN(C(=O)CN(C)C)CC4)cc3c2C)cc1OC` [Example 402, 1-(4-(2-(3,4-dimethoxyphenyl)-3-methyl-1H-indol-5-yl)piperidin-1-yl)-2-(dimethylamino)ethan-1-one]: 2280 nM.
In turn, `COc1ccc(-c2[nH]c3ccc(C4CCN(CC(=O)N5CCN(C(C)=O)CC5)CC4)cc3c2CC(F)(F)F)cc1OC` [Example 361, 1-(4-acetylpiperazin-1-yl)-2-(4-(2-(3,4-dimethoxyphenyl)-3-(2,2,2-trifluoroethyl)-1H-indol-5-yl)piperidin-1-yl)ethan-1-one] returned a half-maximal inhibitory concentration (IC50) of 109 nM. Against the preceding molecule, the IC50 is about 21-fold lower.
With `CCN(CC)C(=O)C1CCCN(CC(=O)N2CCC(c3ccc4[nH]c(-c5ccc(OC)c(OC)c5)c(C5CCOCC5)c4c3)CC2)C1` (centres unmarked) [Example 392, 1-(2-(4-(2-(3,4-dimethoxyphenyl)-3-(tetrahydro-2H-pyran-4-yl)-1H-indol-5-yl)piperidin-1-yl)-2-oxoethyl)-N,N-diethylpiperidine-3-carboxamide], the half-inhibitory concentration (IC50) was 196 nM.
`COc1ccc(-c2[nH]c3ccc(C4CCN(C(=O)CCCNC(C)=O)CC4)cc3c2CC(F)(F)F)cc1OC` [Example 343, N-(4-(4-(2-(3,4-dimethoxyphenyl)-3-(2,2,2-trifluoroethyl)-1H-indol-5-yl)piperidin-1-yl)-4-oxobutyl)acetamide] yielded an IC50 of 371 nM.
The molecule `COc1ccc(-c2[nH]c3ccc(C4CCN(C(=O)CN[C@H](C)C(C)C)CC4)cc3c2C2CCOCC2)cc1OC` [Example 394, (R)-1-(4-(2-(3,4-dimethoxyphenyl)-3-(tetrahydro-2H-pyran-4-yl)-1H-indol-5-yl)piperidin-1-yl)-2-((3-methylbutan-2-yl)amino)ethan-1-one] displayed a half-maximal inhibitory concentration (IC50) of 660 nM.
For `COc1ccc(-c2[nH]c3ccc(C4CCNCC4F)cc3c2C(C)C)cc1OC` (single isomer, unassigned) [Example 321, 2-(3,4-dimethoxyphenyl)-5-(3-fluoropiperidin-4-yl)-3-isopropyl-1H-indole], half-maximal inhibition (IC50) required 21 nM.
With `COc1ccc(-c2[nH]c3ccc(C4CCN(CC(=O)NCCCN5CCCC5=O)CC4)cc3c2CC(F)(F)F)cc1OC` [Example 376, 2-(4-(2-(3,4-dimethoxyphenyl)-3-(2,2,2-trifluoroethyl)-1H-indol-5-yl)piperidin-1-yl)-N-(3-(2-oxopyrrolidin-1-yl)propyl)acetamide], the midpoint of inhibition, the IC50, lay at 65 nM. Against the preceding molecule, the IC50 is about 3.1-fold higher.
`CCN(CCN(C)C)C(=O)CN1CCC(c2ccc3[nH]c(-c4ccc(OC)c(OC)c4)c(CC(F)(F)F)c3c2)CC1` [Example 372, 2-(4-(2-(3,4-dimethoxyphenyl)-3-(2,2,2-trifluoroethyl)-1H-indol-5-yl)piperidin-1-yl)-N-(2-(dimethylamino)ethyl)-N-ethylacetamide] gave an IC50 of 25 nM.
Molecule `COc1ccc(-c2[nH]c3ccc(C4CCNC(=O)C4)cc3c2C(C)C)cc1OC` (centres unmarked) [Example 326, 4-(2-(3,4-dimethoxyphenyl)-3-isopropyl-1H-indol-5-yl)piperidin-2-one] yielded an IC50 of 192 nM. Compared with the last molecule, the IC50 is about 7.7-fold higher.
The molecule `COc1ccc(-c2[nH]c3ccc(C4CCN(C)CC4)cc3c2CC(F)(F)F)cc1OC` [Example 355, 2-(3,4-dimethoxyphenyl)-5-(1-methylpiperidin-4-yl)-3-(2,2,2-trifluoroethyl)-1H-indole] returned an IC50 of 41 nM. This IC50 is about 4.7-fold lower than that of the molecule before.
The same measure for `COc1ccc(-c2[nH]c3ccc(C4CCN(CC(=O)N5CC[C@@H](N(C)C)C5)CC4)cc3c2CC(F)(F)F)cc1OC` [Example 373, (R)-2-(4-(2-(3,4-dimethoxyphenyl)-3-(2,2,2-trifluoroethyl)-1H-indol-5-yl)piperidin-1-yl)-1-(3-(dimethylamino)pyrrolidin-1-yl)ethan-1-one]: 44 nM; for `COc1ccc(-c2[nH]c3ccc(C4CCN(C(=O)CN(C)C)CC4)cc3c2CC(F)(F)F)cc1OC` [Example 354, 1-(4-(2-(3,4-dimethoxyphenyl)-3-(2,2,2-trifluoroethyl)-1H-indol-5-yl)piperidin-1-yl)-2-(dimethylamino)ethan-1-one]: 82 nM; for `COc1ccc(-c2[nH]c3ccc(C4CCNCC4)cc3c2CC(F)(F)F)cc1OC` [Example 329, 2-(3,4-dimethoxyphenyl)-5-(piperidin-4-yl)-3-(2,2,2-trifluoroethyl)-1H-indole]: 19 nM.
`CCN(CC)C(=O)C1CCCN(CC(=O)N2CCC(c3ccc4[nH]c(-c5ccc(OC)c(OC)c5)c(C5CCOCC5)c4c3)CC2)C1` (centres unmarked) [Example 391, 1-(2-(4-(2-(3,4-dimethoxyphenyl)-3-(tetrahydro-2H-pyran-4-yl)-1H-indol-5-yl)piperidin-1-yl)-2-oxoethyl)-N,N-diethylpiperidine-3-carboxamide] yielded an IC50 of 356 nM. Compared with the last molecule, the IC50 is about 19-fold higher.
`COc1ccc(-c2[nH]c3ccc(C4CCN(CC(=O)NCC(N)=O)CC4)cc3c2CC(F)(F)F)cc1OC` [Example 385, N-(2-amino-2-oxoethyl)-2-(4-(2-(3,4-dimethoxyphenyl)-3-(2,2,2-trifluoroethyl)-1H-indol-5-yl)piperidin-1-yl)acetamide]: the IC50 was determined as 41 nM.
In turn, `COc1ccc(-c2[nH]c3ccc(C4CCN(CC(=O)NCC#N)CC4)cc3c2CC(F)(F)F)cc1OC` [Example 381, N-(cyanomethyl)-2-(4-(2-(3,4-dimethoxyphenyl)-3-(2,2,2-trifluoroethyl)-1H-indol-5-yl)piperidin-1-yl)acetamide] yielded a 50% inhibitory concentration (IC50) of 76 nM. Compared with the last molecule, the IC50 is about 1.9-fold higher.
`COc1ccc(-c2[nH]c3ccc(C4CCNCC4(F)F)cc3c2C(C)C)cc1OC` (centres unmarked) [Example 325, 5-(3,3-difluoropiperidin-4-yl)-2-(3,4-dimethoxyphenyl)-3-isopropyl-1H-indole]: the concentration for half-maximal inhibition (IC50) is 147 nM.
Turning to `CCN1CCCC(N2CCC(c3ccc4[nH]c(-c5ccc(OC)c(OC)c5)c(C)c4c3)CC2)C1` (centres unmarked) [Example 24, 2-(3,4-dimethoxyphenyl)-5-(1′-ethyl-[1,3′-bipiperidin]-4-yl)-3-methyl-1H-indole], the IC50 was 27900 nM.

A word on the IC50: it is the concentration needed to halve the response being measured.
